Measured values as given in patent US20240384268A1, “Oligonucleotides” (Hudson Institute of Medical Research, priority 2021, published 2024).
In the oligonucleotide strings, read from the 5' end, every base follows the letter of its sugar. An asterisk marks phosphorothioate; unmarked linkages are phosphodiester. Other units and linkages are bracketed, terminal groups are in braces. A string of capitals states the bases alone. d = 2'-deoxy (DNA); m = 2'-O-methyl

biological target: T1, human TLR9 (Homo sapiens, UniProt Q9NR96); assay: HEK-TLR9 NF-κB-luciferase reporter, ODN2006 stimulation; format: cell-based; settings: HEK-TLR9; 500 nM ASO 45 min, then 200 nM ODN2006 overnight; percentage of ODN2006 only
T1 construct: HA; host or cells: 293XL-hTLR9-HA (HEK293)
T1 sequence (Q9NR96 26-1032): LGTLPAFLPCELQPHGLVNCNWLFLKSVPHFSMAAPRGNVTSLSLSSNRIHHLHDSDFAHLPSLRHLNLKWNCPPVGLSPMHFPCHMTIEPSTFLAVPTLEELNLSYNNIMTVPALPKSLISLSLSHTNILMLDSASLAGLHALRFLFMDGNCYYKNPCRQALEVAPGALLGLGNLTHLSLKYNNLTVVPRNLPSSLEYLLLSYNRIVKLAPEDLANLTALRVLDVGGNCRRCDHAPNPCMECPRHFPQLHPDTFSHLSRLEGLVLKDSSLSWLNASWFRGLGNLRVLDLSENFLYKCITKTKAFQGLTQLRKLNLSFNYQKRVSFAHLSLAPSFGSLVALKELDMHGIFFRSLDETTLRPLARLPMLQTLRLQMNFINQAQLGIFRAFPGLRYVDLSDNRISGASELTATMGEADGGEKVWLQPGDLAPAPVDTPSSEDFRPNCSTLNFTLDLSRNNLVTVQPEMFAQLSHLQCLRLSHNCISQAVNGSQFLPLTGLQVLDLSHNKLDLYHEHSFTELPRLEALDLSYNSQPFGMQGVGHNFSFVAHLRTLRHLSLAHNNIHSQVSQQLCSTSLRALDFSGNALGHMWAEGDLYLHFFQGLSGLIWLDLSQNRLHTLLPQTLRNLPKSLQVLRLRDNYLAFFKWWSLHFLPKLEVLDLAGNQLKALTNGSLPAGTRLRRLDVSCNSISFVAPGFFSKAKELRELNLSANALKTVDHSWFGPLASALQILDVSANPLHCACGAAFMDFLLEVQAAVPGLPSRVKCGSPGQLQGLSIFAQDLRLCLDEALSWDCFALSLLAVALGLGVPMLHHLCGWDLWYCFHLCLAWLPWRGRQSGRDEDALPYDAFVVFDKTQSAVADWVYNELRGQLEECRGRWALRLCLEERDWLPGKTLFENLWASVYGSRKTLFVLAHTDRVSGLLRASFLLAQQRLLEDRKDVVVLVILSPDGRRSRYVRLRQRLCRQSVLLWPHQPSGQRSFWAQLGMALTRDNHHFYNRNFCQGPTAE

Substance | TLR9-500 nM: averaged NF-κB-Luciferase relative to ODN2006 [%]
mC*mA*mU*mC*mC*C*T*T*C*T*G*C*T*G*C*mC*mA*mA*mG*mC (mC*mA*mU*mC*mC*dC*dT*dT*dC*dT*dG*dC*dT*dG*dC*mC*mA*mA*mG*mC; antisense) [[LINC-PINT]98] | 65.09
mC*mC*mA*mU*mC*C*C*T*T*C*T*G*C*T*G*mC*mC*mA*mA*mG (mC*mC*mA*mU*mC*dC*dC*dT*dT*dC*dT*dG*dC*dT*dG*mC*mC*mA*mA*mG; antisense) [ILING-PINT199] | 92.72
mC*mC*mA*mU*mG*T*C*C*C*A*G*G*C*C*T*mC*mC*mA*mG*mU (CCAUGTCCCAGGCCTCCAGU; sugars from the 5' end m5 d10 m5, all phosphorothioate, methylation of C not given here) [[CDKN2B-AS1]2227] | 48.79
mC*mC*mC*mU*mA*A*T*G*C*T*T*T*C*C*T*mC*mU*mC*mC*mA (mC*mC*mC*mU*mA*dA*dT*dG*dC*dT*dT*dT*dC*dC*dT*mC*mU*mC*mC*mA; antisense) [[LINC-PINT1877 KL] | 86.47
mC*mC*mC*mU*mU*C*T*C*T*C*T*G*G*T*C*mC*mC*mA*mU*mC (mC*mC*mC*mU*mU*dC*dT*dC*dT*dC*dT*dG*dG*dT*dC*mC*mC*mA*mU*mC; antisense) [[LINC-PINT]114] | 62.09
mC*mC*mU*mA*mG*A*A*A*G*A*A*G*C*A*A*mA*mG*mA*mU*mU (mC*mC*mU*mA*mG*dA*dA*dA*dG*dA*dA*dG*dC*dA*dA*mA*mG*mA*mU*mU) [[CDKN2B-AS1]1522] | 42.44
mC*mC*mU*mU*mC*T*C*T*C*T*G*GT*C*C*mC*mA*mU*mC*mC (CCUUCTCTCTGGTCCCAUCC; antisense; chemistry not fully specified) [[LINC-PINT]113] | 55.47
mC*mC*mU*mU*mC*T*G*C*T*G*C*C*A*A*G*mC*mC*mC*mC*mA (mC*mC*mU*mU*mC*dT*dG*dC*dT*dG*dC*dC*dA*dA*dG*mC*mC*mC*mC*mA; antisense) [[LINC-PINT]94] | 96.69
mC*mU*mC*mU*mC*T*G*G*T*C*C*C*A*T*C*mC*mC*mU*mU*mC (mC*mU*mC*mU*mC*dT*dG*dG*dT*dC*dC*dC*dA*dT*dC*mC*mC*mU*mU*mC; antisense) [[LINC-PINT]109] | 89.85
mC*mU*mU*mC*mU*C*T*C*T*G*G*T*C*C*C*mA*mU*mC*mC*mC (mC*mU*mU*mC*mU*dC*dT*dC*dT*dG*dG*dT*dC*dC*dC*mA*mU*mC*mC*mC) [[LINC-PINT]112] | 64.35
mC*mU*mU*mU*mA*T*A*T*T*A*C*A*A*A*G*mC*mU*mA*mC*mU (mC*mU*mU*mU*mA*dT*dA*dT*dT*dA*dC*dA*dA*dA*dG*mC*mU*mA*mC*mU; antisense) [[LINC-PINT]2755] | 84.43
mG*mA*mA*mA*mA*G*A*T*T*A*T*C*T*T*C*mU*mU*mU*mU*mA (GAAAAGATTATCTTCUUUUA; sugars from the 5' end m5 d10 m5, all phosphorothioate, methylation of C not given here) [[CDKN2B-AS1]2134] | 61.11
mG*mA*mU*mG*mG*T*T*C*C*A*G*T*C*C*C*mU*mC*mU*mU*mC (GAUGGTTCCAGTCCCUCUUC; antisense; sugars from the 5' end m5 d10 m5, all phosphorothioate, methylation of C not given here) [[LINC-PINT]1497.1] | 80.47
mG*mA*mU*mU*mA*A*A*A*C*A*G*A*T*T*A*mA*mU*mA*mC*mA (mG*mA*mU*mU*mA*dA*dA*dA*dC*dA*dG*dA*dT*dT*dA*mA*mU*mA*mC*mA) [[CDKN2B-AS1]1773] | 44.97
mG*mC*mA*mA*mG*G*C*A*G*A*G*A*A*A*C*mU*mC*mC*mA*mG (GCAAGGCAGAGAAACUCCAG; sugars from the 5' end m5 d10 m5, all phosphorothioate, methylation of C not given here) [[LINC-PINT]1315 KL] | 53.46
mG*mC*mG*mU*mA*G*T*T*T*C*T*C*T*T*C*mC*mU*mC*mC*mC (GCGUAGTTTCTCTTCCUCCC; sugars from the 5' end m5 d10 m5, all phosphorothioate, methylation of C not given here) [[LINC-PINT]935 KL] | 52.04

Substance | TLR9-500 nM: averaged NF-κB-Luciferase relative to ODN2006 [%]
mG*mG*mA*mU*mU*A*A*A*A*C*A*G*A*T*T*mA*mA*mU*mA*mC (GGAUUAAAACAGATTAAUAC; sugars from the 5' end m5 d10 m5, all phosphorothioate, methylation of C not given here) [[CDKN2B-AS1]1774] | 27.79
mG*mG*mG*mU*mC*T*C*C*T*C*C*A*C*A*C*mC*mC*mU*mU*mC (GGGUCTCCTCCACACCCUUC; antisense; sugars from the 5' end m5 d10 m5, all phosphorothioate, methylation of C not given here) [[LINC-PINT]128] | 94.51
mG*mG*mU*mC*mC*C*A*T*C*C*C*T*T*C*T*mG*mC*mU*mG*mC (GGUCCCATCCCTTCTGCUGC; sugars from the 5' end m5 d10 m5, all phosphorothioate, methylation of C not given here) [[LINC-PINT]103] | 88.75
mG*mG*mU*mC*mU*C*C*T*C*C*A*C*A*C*C*mC*mU*mU*mC*mU (mG*mG*mU*mC*mU*dC*dC*dT*dC*dC*dA*dC*dA*dC*dC*mC*mU*mU*mC*mU; antisense) [[LINC-PINT]127] | 77.91
mG*mG*mU*mG*mG*C*C*A*C*A*G*G*C*A*A*mC*mG*mU*mC*mA (GGUGGCCACAGGCAACGUCA; antisense; sugars from the 5' end m5 d10 m5, all phosphorothioate, methylation of C not given here) [[CDKN2B-AS1]2196] | 97.04
mG*mU*mC*mA*mA*A*C*C*T*A*G*A*A*A*G*mA*mA*mG*mC*mA (mG*mU*mC*mA*mA*dA*dC*dC*dT*dA*dG*dA*dA*dA*dG*mA*mA*mG*mC*mA; antisense) [[CDKN2B-AS1]1528] | 68.13
mG*mU*mC*mC*mC*A*G*G*C*C*T*C*C*A*G*mU*mG*mU*mC*mU (mG*mU*mC*mC*mC*dA*dG*dG*dC*dC*dT*dC*dC*dA*dG*mU*mG*mU*mC*mU; antisense) [[CDKN2B-AS1]2223] | 67.61
mG*mU*mC*mC*mC*A*T*C*C*C*T*T*C*T*G*mC*mU*mG*mC*mC (GUCCCATCCCTTCTGCUGCC; antisense; sugars from the 5' end m5 d10 m5, all phosphorothioate, methylation of C not given here) [[LINC-PINT]102] | 101.22
mG*mU*mC*mC*mG*T*A*C*C*T*C*C*A*C*C*mC″mA*mC*mC*mG [[LINC-PINT]727.1] | 58.15
mG*mU*mC*mU*mC*C*T*C*C*A*C*A*C*C*C*mU*mU*mC*mU*mC (mG*mU*mC*mU*mC*dC*dT*dC*dC*dA*dC*dA*dC*dC*dC*mU*mU*mC*mU*mC; antisense) [[LINC-PINT]126] | 77.09
mG*mU*mU*mC*mA*G*T*C*A*G*A*T*C*G*C*mU*mG*mG*mG*mA (mG*mU*mU*mC*mA*dG*dT*dC*dA*dG*dA*dT*dC*dG*dC*mU*mG*mG*mG*mA) [[LINC-PINT]412 KL] | 77.50
mU*mA*mA*mA*mA*T*A*A*G*G*G*G*A*A*T*mA*mG*mG*mG*mG (mU*mA*mA*mA*mA*dT*dA*dA*dG*dG*dG*dG*dA*dA*dT*mA*mG*mG*mG*mG) [[CDKN2B-AS1]80] | 64.58
mU*mC*mC*mC*mA*A*C*T*C*T*T*C*T*A*A*mC*mU*mC*mG*mU (mU*mC*mC*mC*mA*dA*dC*dT*dC*dT*dT*dC*dT*dA*dA*mC*mU*mC*mG*mU; antisense) [[LINC-PINT]1284 KL] | 86.73
mU*mC*mC*mC*mA*T*C*C*C*T*T*C*T*G*C*mU*mG*mA*mC*mA (UCCCATCCCTTCTGCUGACA; sugars from the 5' end m5 d10 m5, all phosphorothioate, methylation of C not given here) [[LINC-PINT]101] | 59.80
mU*mC*mU*mC*mC*A*T*G*T*C*C*C*A*G*G*mC*mC*mU*mC*mC (mU*mC*mU*mC*mC*dA*dT*dG*dT*dC*dC*dC*dA*dG*dG*mC*mC*mU*mC*mC; antisense) [[CDKN2B-AS1]2230] | 118.93
